# Laboratory results from patent publication US12215129B2, “Antibacterial cyclopeptides targeting acinetobacter and other gram-negative pathogens” (priority 2020, dated 2025).
# Where “and” joins values, the source holds several entries; their conditions need not be identical. Identical values can stand only once. Marks after values point to notes of the source that are not given here. Starred links: 1 amine or outer side, 2 acyl side, 3 side chain; linkers in the order of their positions; H or OH if unused. Positions of bridges follow the written chain, without caps; N, C: chain ends. Non-standard residues stand in square brackets, D forms with d. Residues, ends and D or L forms follow the SMILES beside them. *: point of attachment. dAsp(3R-OH) = N[C@@H](C(=O)O)[C@@H](O)C(=O)O; Palmitoleoyl = CCCCCC/C=C\CCCCCCCC(=O)*; X1 = NC[C@H](O)[C@@H](N[*:1])C(=O)[*:2]; X2 = CCC(C)(O)[C@H](N[*:1])C(=O)[*:2]; d(aIle) = CC[C@H](C)[C@@H](N)C(=O)O; Myristoyl = CCCCCCCCCCCCCC(=O)*; dOrn = NCCC[C@@H](N)C(=O)O; hSer = N[C@@H](CCO)C(=O)O
# How the values were obtained:
# Escherichia coli = type: cell-based
# [1] = test system: Klebsiella pneumoniae (ATCC BAA-1705); type: cell-based
# A. baylyi = type: cell-based, Acinetobacter baylyi; conditions: for sensitivity of Δ1ptE A. baylyi strain: at 8 μg/mL; for MIC against A. baylyi compared with A. baumannii: nonpathogenic relative A. baylyi; for nature of growth inhibition: plating of inhibited wells from A. baylyi broth cultures
# A. baumannii ATCC 17978 = assay: Thigh infection neutropenic mouse model, efficacy (CFU/thigh); type: in vivo, Acinetobacter baumannii; conditions: for Decrease (%) / Δ / CFU/thigh Time post inoculation 2, 26 h / Log (CFU/thigh) Time post inoculation 2, 26 h / CFU/thigh Time post inoculation 2, 26 h, Mean / Log (CFU/thigh) Time post inoculation 2, 26 h, Mean / Dilution (CFU/plate) 0 / Dilution (CFU/plate) 10^1 / Dilution (CFU/plate) 10^2 / Dilution (CFU/plate) 10^3 / Dilution (CFU/plate) 10^4 / Dilution (CFU/plate) 10^5 / Dilution (CFU/plate) 10^6: BID, q12h; for Decrease (%) / Δ / CFU/thigh Time post inoculation 2, 26 h / Log (CFU/thigh) Time post inoculation 2, 26 h / CFU/thigh Time post inoculation 2, 26 h, Mean / Log (CFU/thigh) Time post inoculation 2, 26 h, Mean: 26 h; for Decrease (%): decrease in counts compared to the vehicle group; for Δ: difference in bacterial counts relative to the baseline group (2 h initial counts); for CFU/thigh Time post inoculation 2, 26 h / Log (CFU/thigh) Time post inoculation 2, 26 h: individual animals; for CFU/thigh Time post inoculation 2, 26 h, Mean / Log (CFU/thigh) Time post inoculation 2, 26 h, Mean: mean of 5 animals; for Dilution (CFU/plate) 0 / Dilution (CFU/plate) 10^1 / Dilution (CFU/plate) 10^2 / Dilution (CFU/plate) 10^3 / Dilution (CFU/plate) 10^4 / Dilution (CFU/plate) 10^5 / Dilution (CFU/plate) 10^6: raw data; for Dilution (CFU/plate) 0: dilution 0, individual animals; for Dilution (CFU/plate) 10^1: dilution 10^1, individual animals; for Dilution (CFU/plate) 10^2: dilution 10^2, individual animals; for Dilution (CFU/plate) 10^3: dilution 10^3, individual animals; for Dilution (CFU/plate) 10^4: dilution 10^4, individual animals; for Dilution (CFU/plate) 10^5: dilution 10^5, individual animals; for Dilution (CFU/plate) 10^6: dilution 10^6, individual animals
# [2] = test system: Acinetobacter baumannii (ATCC 19606); conditions: for MIC: ATCC 19606
# [3] = test system: Enterococcus faecalis (ATCC 29212)
smiles,measurement,setting,value
"CCCCCCCCCCCCCC(=O)N[C@H](CCCN)C(=O)N[C@@H](CO)C(=O)N[C@H](C(=O)N[C@@H](C(=O)N[C@@H](C(=O)N[C@@H]1C(=O)NCC(=O)N[C@@H](C(C)(O)CC)C(=O)N[C@H]([C@@H](C)CC)C(=O)N[C@@H](CCO)C(=O)N[C@@H](C)C(=O)N[C@H]([C@@H](C)CC)C(=O)N[C@@H](CCC(=O)O)C(=O)O[C@@H]1C)[C@@H](O)CN)[C@@H](O)C(=O)O)C(C)C (stereo partly drawn) [Compound 1, Turnercyclamycin A] (Myristoyl-[dOrn]SV[dAsp(3R-OH)][X1]TG[X2][d(aIle)][hSer]A[d(aIle)]E; ester 6-C)",MIC90,Escherichia coli,1 µg/mL
same,MIC90,[1],2 µg/mL
same,sensitivity of Δ1ptE A. baylyi strain,A. baylyi,still sensitive
same,MIC against A. baylyi compared with A. baumannii,A. baylyi,same MIC
same,nature of growth inhibition,A. baylyi,"bactericidal, not bacteriostatic"
same,Decrease (%),A. baumannii ATCC 17978; 6.25 mg/kg IV,27%
same,Δ,A. baumannii ATCC 17978; 6.25 mg/kg IV,2.27
same,"CFU/thigh Time post inoculation 2, 26 h",A. baumannii ATCC 17978; 6.25 mg/kg IV,4.59 × 10^7 CFU/thigh and 3.63 × 10^7 CFU/thigh and 4.62 × 10^7 CFU/thigh and 6.93 × 10^7 CFU/thigh and 7.71 × 10^7 CFU/thigh
same,"Log (CFU/thigh) Time post inoculation 2, 26 h",A. baumannii ATCC 17978; 6.25 mg/kg IV,7.66 Log (CFU/thigh) (2×) and 7.56 Log (CFU/thigh) and 7.84 Log (CFU/thigh) and 7.89 Log (CFU/thigh)
same,"CFU/thigh Time post inoculation 2, 26 h, Mean",A. baumannii ATCC 17978; 6.25 mg/kg IV,5.50 × 10^7 CFU/thigh
same,"Log (CFU/thigh) Time post inoculation 2, 26 h, Mean",A. baumannii ATCC 17978; 6.25 mg/kg IV,7.72 Log (CFU/thigh)
same,Dilution (CFU/plate) 0,A. baumannii ATCC 17978; 6.25 mg/kg IV,>300 CFU/plate
same,Dilution (CFU/plate) 10^1,A. baumannii ATCC 17978; 6.25 mg/kg IV,>300 CFU/plate
same,Dilution (CFU/plate) 10^2,A. baumannii ATCC 17978; 6.25 mg/kg IV,>300 CFU/plate
same,Dilution (CFU/plate) 10^3,A. baumannii ATCC 17978; 6.25 mg/kg IV,>300 CFU/plate
same,Dilution (CFU/plate) 10^4,A. baumannii ATCC 17978; 6.25 mg/kg IV,153 CFU/plate and 121 CFU/plate and 154 CFU/plate and 231 CFU/plate and 257 CFU/plate
same,Dilution (CFU/plate) 10^5,A. baumannii ATCC 17978; 6.25 mg/kg IV,21 CFU/plate and 9 CFU/plate and 16 CFU/plate and 24 CFU/plate and 26 CFU/plate
same,Dilution (CFU/plate) 10^6,A. baumannii ATCC 17978; 6.25 mg/kg IV,3 CFU/plate (2×) and 1 CFU/plate and 0 CFU/plate and 2 CFU/plate
same,decrease in bacterial CFU/thigh,"A. baumannii ATCC 17978; 12.5 mg/kg IV twice daily, p<0.05, CFU at 26 hours",98%
same,Decrease (%),A. baumannii ATCC 17978; 12.5 mg/kg IV,98%
same,Δ,A. baumannii ATCC 17978; 12.5 mg/kg IV,0.10
same,"CFU/thigh Time post inoculation 2, 26 h",A. baumannii ATCC 17978; 12.5 mg/kg IV,5.67 × 10^5 CFU/thigh and 7.02 × 10^6 CFU/thigh and 7.89 × 10^5 CFU/thigh and 1.32 × 10^5 CFU/thigh and 1.35 × 10^4 CFU/thigh
same,"Log (CFU/thigh) Time post inoculation 2, 26 h",A. baumannii ATCC 17978; 12.5 mg/kg IV,5.75 Log (CFU/thigh) and 6.85 Log (CFU/thigh) and 5.90 Log (CFU/thigh) and 5.12 Log (CFU/thigh) and 4.13 Log (CFU/thigh)
same,"CFU/thigh Time post inoculation 2, 26 h, Mean",A. baumannii ATCC 17978; 12.5 mg/kg IV,1.70 × 10^6 CFU/thigh
same,"Log (CFU/thigh) Time post inoculation 2, 26 h, Mean",A. baumannii ATCC 17978; 12.5 mg/kg IV,5.55* Log (CFU/thigh)
same,Dilution (CFU/plate) 0,A. baumannii ATCC 17978; 12.5 mg/kg IV,>300 CFU/plate
same,Dilution (CFU/plate) 10^1,A. baumannii ATCC 17978; 12.5 mg/kg IV,>300 CFU/plate (4×) and 45 CFU/plate
same,Dilution (CFU/plate) 10^2,A. baumannii ATCC 17978; 12.5 mg/kg IV,189 CFU/plate and >300 CFU/plate and 263 CFU/plate and 44 CFU/plate and 4 CFU/plate
same,Dilution (CFU/plate) 10^3,A. baumannii ATCC 17978; 12.5 mg/kg IV,12 CFU/plate and 234 CFU/plate and 24 CFU/plate and 2 CFU/plate and 0 CFU/plate
same,Dilution (CFU/plate) 10^4,A. baumannii ATCC 17978; 12.5 mg/kg IV,0 CFU/plate (2×) and 1 CFU/plate and 28 CFU/plate and 2 CFU/plate
same,Dilution (CFU/plate) 10^5,A. baumannii ATCC 17978; 12.5 mg/kg IV,0 CFU/plate (4×) and 1 CFU/plate
same,Dilution (CFU/plate) 10^6,A. baumannii ATCC 17978; 12.5 mg/kg IV,0 CFU/plate
same,clearing of bacterial CFU/thigh,"A. baumannii ATCC 17978; 25 mg/kg IV twice daily, CFU at 26 hours",99.99%
same,Decrease (%),A. baumannii ATCC 17978; 25 mg/kg IV,100%
same,Δ,A. baumannii ATCC 17978; 25 mg/kg IV,−1.65^#
same,"CFU/thigh Time post inoculation 2, 26 h",A. baumannii ATCC 17978; 25 mg/kg IV,5.91 × 10^3 CFU/thigh and 7.68 × 10^3 CFU/thigh and 8.76 × 10^3 CFU/thigh and 1.38 × 10^4 CFU/thigh and 1.89 × 10^3 CFU/thigh
same,"Log (CFU/thigh) Time post inoculation 2, 26 h",A. baumannii ATCC 17978; 25 mg/kg IV,3.77 Log (CFU/thigh) and 3.89 Log (CFU/thigh) and 3.94 Log (CFU/thigh) and 4.14 Log (CFU/thigh) and 3.28 Log (CFU/thigh)
same,"CFU/thigh Time post inoculation 2, 26 h, Mean",A. baumannii ATCC 17978; 25 mg/kg IV,7.61 × 10^3 CFU/thigh
same,"Log (CFU/thigh) Time post inoculation 2, 26 h, Mean",A. baumannii ATCC 17978; 25 mg/kg IV,3.80* Log (CFU/thigh)
same,Dilution (CFU/plate) 0,A. baumannii ATCC 17978; 25 mg/kg IV,197 CFU/plate and 256 CFU/plate and 292 CFU/plate and >300 CFU/plate and 63 CFU/plate
same,Dilution (CFU/plate) 10^1,A. baumannii ATCC 17978; 25 mg/kg IV,26 CFU/plate and 32 CFU/plate and 29 CFU/plate and 46 CFU/plate and 8 CFU/plate
same,Dilution (CFU/plate) 10^2,A. baumannii ATCC 17978; 25 mg/kg IV,3 CFU/plate (2×) and 1 CFU/plate (2×) and 4 CFU/plate
same,Dilution (CFU/plate) 10^3,A. baumannii ATCC 17978; 25 mg/kg IV,0 CFU/plate
same,Dilution (CFU/plate) 10^4,A. baumannii ATCC 17978; 25 mg/kg IV,0 CFU/plate
same,Dilution (CFU/plate) 10^5,A. baumannii ATCC 17978; 25 mg/kg IV,0 CFU/plate
same,Dilution (CFU/plate) 10^6,A. baumannii ATCC 17978; 25 mg/kg IV,0 CFU/plate
same,MIC90,[2],8 µg/mL
same,MIC,[2],8 µg/mL
same,MIC90,[3],>64 µg/mL
same,MIC90,Staphylococcus aureus,>64 µg/mL
same,decrease of Staphylococcus aureus growth,Staphylococcus aureus,50%
"CCCCCC/C=C\CCCCCCCC(=O)N[C@H](CCCN)C(=O)N[C@@H](CO)C(=O)N[C@H](C(=O)N[C@@H](C(=O)N[C@@H](C(=O)N[C@@H]1C(=O)NCC(=O)N[C@@H](C(C)(O)CC)C(=O)N[C@H]([C@@H](C)CC)C(=O)N[C@@H](CCO)C(=O)N[C@@H](C)C(=O)N[C@H]([C@@H](C)CC)C(=O)N[C@@H](CCC(=O)O)C(=O)O[C@@H]1C)[C@@H](O)CN)[C@@H](O)C(=O)O)C(C)C (stereo partly drawn) [Compound 2, Turnercyclamycin B] (Palmitoleoyl-[dOrn]SV[dAsp(3R-OH)][X1]TG[X2][d(aIle)][hSer]A[d(aIle)]E; ester 6-C)",MIC90,Escherichia coli,1 µg/mL
same,MIC90,[1],2 µg/mL
same,sensitivity of Δ1ptE A. baylyi strain,A. baylyi,still sensitive
same,MIC against A. baylyi compared with A. baumannii,A. baylyi,same MIC
same,nature of growth inhibition,A. baylyi,"bactericidal, not bacteriostatic"
same,MIC90,[2],8 µg/mL
same,MIC,[2],8 µg/mL
same,MIC90,[3],>64 µg/mL
same,MIC90,Staphylococcus aureus,>64 µg/mL
same,decrease of Staphylococcus aureus growth,Staphylococcus aureus,50%
same,IC50 against HEK-293,HEK-293 cells,failed to calculate an IC50 value
same,"hemolytic activity, no activity up to",mouse red blood cell,> 64 µg/mL
